What was measured:
[1] = biological target: interaction between PD-1 and PD-L1 (Homo sapiens (Human), UniProt Q9NZQ7); experiment: PD1-PDL1 HTRF binding activity test (Cisbio PD-1/PD-L1 binding assay kit); details: read-out: PD1-PDL1 HTRF Binding Activity IC50
Method: A. PD1-PDL1 HTRF Binding Activity Test
The effect of compounds and positive compounds of the examples of the present invention on the interaction between PD-1 and PD-L1 was determined by the PD-1/PD-L1 binding assay kit from Cisbio (#64ICP01PEG or 64ICP01PEH). The detailed experimental process was as follows:
1. Pre-diluted compound solution, 4 μL of Tag1-PD-L1 and 4 μL of Tag2-PD1 were added to each well of a 384-well plate;
3. After incubated for 2 hrs at room temperature or overnight at 4° C., plates were read on Envision of Pelkin Elmer; and readings at 665 nm and 620 nm were recorded, and the ratio of the two readings was taken as a reading for each well;
4. The reading of each well after compound treatment was compared with the reading of DMSO treated wells to obtain the percent inhibition of the compound; and
5. IC50 values of compounds and positive compounds of the examples of the present invention were determined by non-linear regression analysis of percent inhibition at different compound concentrations.

[2] = biological target: interaction between PD-1 and PD-L1 expressed on cell surfaces (Homo sapiens (Human), UniProt Q9NZQ7); experiment: Jurkat reporter gene cellular assay (Jurkat/NF-κB-luc/PD1 cells cocultured with Raji-PD-L1 cells, OKT-3 stimulation); assay type: cell-based; details: NF-κB-luc reporter activation fold, 6 hrs; read-out: Cell Activity EC50
interaction between PD-1 and PD-L1 expressed on cell surfaces, sequence (Q9NZQ7 19-290): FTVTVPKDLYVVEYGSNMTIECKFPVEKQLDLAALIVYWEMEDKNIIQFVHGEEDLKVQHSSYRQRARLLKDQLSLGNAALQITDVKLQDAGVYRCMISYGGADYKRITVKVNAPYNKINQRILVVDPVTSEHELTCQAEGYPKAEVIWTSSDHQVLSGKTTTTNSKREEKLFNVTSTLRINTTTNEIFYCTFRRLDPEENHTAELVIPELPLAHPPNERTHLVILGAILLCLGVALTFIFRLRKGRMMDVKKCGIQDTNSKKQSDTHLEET
Method: B. Jurkat Reporter Gene Cellular Assay
The effect of compounds of the examples of the present invention and positive compounds on the interaction between PD-1 and PD-L1 expressed on cell surfaces, and the related influence on T cell functions, were determined by a Jurkat reporter gene cellular assay.
Briefly, the reporter gene plasmid of NF-κB-luc and the plasmid of human PD-1 were transfected into Jurkat cells to establish a stably transfected cell line capable of stably expressing both PD-1 and NF-κB-Luc reporter genes; the expression level of PD-1 on the cell surface was confirmed by flow cytometry: and the expression of the reporter gene was confirmed via the response of the reporter gene stimulated by OKT-3 and Raiji cells.
In addition, the plasmid of human PD-L1 was transfected into Raji cells to obtain a cell line capable of stably expressing PD-L1. Jurkat/NF-κB-luc/PD1 cells and Raji-PD-L1 cells were then cocultured and stimulated with OKT-3. On this basis, the compounds were added, and the enhancement of the signal pathway of T cell activation by the inhibitory effect of the compounds on the interaction between PD-1 and PD-L1 was evaluated by readings of reporter gene responses. The specific experimental process was as follows:
2. 20 μL of Raji-PD-L1 cell suspension was added to each well with 5*10^4 cells for each well, and was incubated in an incubator for 20 min;
3. 20 μL of Jurkat/NF-κb-luc/PD-1 cell suspension was added to each well with 5*10^4 cells for each well, and well mixed, and 6 hrs later, Bright-glo (Promega, E2620) was applied and plates were read on Envision;
4. the reading of each well treated with the compound was compared with the reading of each well treated with DMSO to obtain the activation fold of the compound; and
5. EC50 values of compounds and positive compounds of the examples of the present invention were determined by non-linear regression analysis of activation folds at different compound concentrations.

interaction between PD-1 and PD-L1, sequence (Q9NZQ7 19-238): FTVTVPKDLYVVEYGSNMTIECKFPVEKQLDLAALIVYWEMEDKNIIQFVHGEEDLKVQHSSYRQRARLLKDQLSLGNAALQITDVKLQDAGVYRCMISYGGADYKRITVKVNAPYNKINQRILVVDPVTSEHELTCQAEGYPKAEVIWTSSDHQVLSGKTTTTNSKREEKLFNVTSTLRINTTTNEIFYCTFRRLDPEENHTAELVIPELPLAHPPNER

Work on `COc1cc(C(=O)Nc2cccc(-c3cccc(NC(=O)c4cc(OC)c(CN[C@H](CO)C(=O)O)cn4)c3C)c2C)ncc1CN[C@H](CO)C(=O)O` [Example 2, (2R,2′R)-2,2′-((((((2,2′-dimethyl-[1,1′-biphenyl]-3,3′-diyl)bis (azanediyl))bis(carbonyl))bis(4-methoxypyridine-6,3-diyl))bis(methylene))bis (azanediyl))bis(3-hydroxypropanoic acid)] yielded an IC50 [1] of 0.18 nM and an EC50 [2] of 109 nM.

Work on `Cc1c(NC(=O)c2ccc(CN[C@H](CO)C(=O)O)cn2)cccc1-c1cccc(NC(=O)c2ccc(CN[C@H](CO)C(=O)O)cn2)c1C` [Example 6, (2R,2′R)-2,2′-((((((2,2′-dimethyl[1,1′-biphenyl]-3,3′-diyl)bis(azanediyl))bis(carbonyl))bis(pyridine-6,3-diyl))bis(methylene))bis(azanediyl))bis (3-hydroxypropanoic acid)] yielded an IC50 [1] of 0.79 nM and an EC50 [2] of 658 nM.

In the case of `COCCNCc1cnc(C(=O)Nc2cccc(-c3cccc(NC(=O)c4cc(C)c(CNCCOC)cn4)c3C)c2C)cc1C` [Example 7, N,N′-(2,2′-dimethyl-[1,1′-biphenyl]-3,3′-diyl)bis(5-(((2-methoxyethyl)amino)methyl)-4-methylpicolinamide)], the IC50 [1] is reported as 0.096 nM and the EC50 [2] is reported as 139 nM.

In the case of `Cc1cc(C(=O)Nc2cccc(-c3cccc(NC(=O)c4cc(C)c(CN5CCOCC5)cn4)c3C)c2C)ncc1CN1CCOCC1` [Example 9, N,N′-(2,2′-dimethyl-[1,1′-biphenyl]-3,3′-diyl)bis(4-methyl-5-(morpholinomethyl)picolinamide)], the IC50 [1] is reported as 3.8 nM and the EC50 [2] is reported as > 10000 nM.

`Cc1cc(C(=O)Nc2cccc(-c3cccc(NC(=O)c4cc(C)c(CNCC5(O)CC5)cn4)c3C)c2C)ncc1CNCC1(O)CC1` [Example 10, N,N′-(2,2′-dimethyl-[1,1′-biphenyl]-3,3′-diyl)bis(5-((((1-hydroxycyclopropyl)methyl)amino)methyl)-4-methylpicolinamide)] showed an IC50 [1] of 0.28 nM and an EC50 [2] of 50 nM.

`Cc1cc(C(=O)Nc2cccc(-c3cccc(NC(=O)c4cc(C)c(CN5CC(C)(O)C5)cn4)c3C)c2C)ncc1CN1CC(C)(O)C1` [Example 11, N,N′-(2,2′-dimethyl-[1,1′-biphenyl]-3,3′-diyl)bis(5-((3-hydroxy-3-methylazetidin-1-yl)methyl)-4-methylpicolinamide)] was tested, and the IC50 [1] was 0.6 nM and the EC50 [2] was 134 nM.

`Cc1cc(C(=O)Nc2cccc(-c3cccc(NC(=O)c4cc(C)c(CN5CCCC5)cn4)c3C)c2C)ncc1CN1CCCC1` [Example 12, N,N′-(2,2′-dimethyl-[1,1′-biphenyl]-3,3′-diyl)bis(4-methyl-5-(pyrrolidin-1-ylmethyl)picolinamide)] gave an IC50 [1] of 1.9 nM and an EC50 [2] of 594 nM.

With `Cc1cc(C(=O)Nc2cccc(-c3cccc(NC(=O)c4cc(C)c(CN5CC[C@@H](O)C5)cn4)c3C)c2C)ncc1CN1CC[C@@H](O)C1` [Example 13, N,N′-(2,2′-dimethyl-[1,1′-biphenyl]-3,3′-diyl)bis(5-(((R)-3-hydroxypyrrolidin-1-yl)methyl)-4-methylpicolinamide)] the IC50 [1] was 0.13 nM and the EC50 [2] was 109 nM.

Work on `Cc1cc(C(=O)Nc2cccc(-c3cccc(NC(=O)c4cc(C)c(CN5CCC(F)(F)C5)cn4)c3C)c2C)ncc1CN1CCC(F)(F)C1` [Example 14, N,N′-(2,2′-dimethyl-[1,1′-biphenyl]-3,3′-diyl)bis(5-((3,3-difluoropyrrolidin-1-yl)methyl)-4-methylpicolinamide)] yielded an IC50 [1] of 227 nM.

Work on `Cc1cc(C(=O)Nc2cccc(-c3cccc(NC(=O)c4cc(C)c(CNC5CC5)cn4)c3C)c2C)ncc1CNC1CC1` [Example 15, N,N′-(2,2′-dimethyl-[1,1′-biphenyl]-3,3′-diyl)bis(5-((cyclopropylamino)methyl)-4-methyipicolinamide)] yielded an IC50 [1] of 0.83 nM and an EC50 [2] of 511 nM.

Work on `CC(=O)NCCNCc1cnc(C(=O)Nc2cccc(-c3cccc(NC(=O)c4cc(C)c(CNCCNC(C)=O)cn4)c3C)c2C)cc1C` [Example 16, N,N′-(2,2′-dimethyl-[1,1′-biphenyl]-3,3′-diyl)bis(5-(((2-acetamidoethyl)amino)methyl)-4-methylpicolinamide)] yielded an IC50 [1] of 0.14 nM and an EC50 [2] of 310 nM.

For `Cc1cc(C(=O)Nc2cccc(-c3cccc(NC(=O)c4cc(C)c(CN5CCNC(=O)C5)cn4)c3C)c2C)ncc1CN1CCNC(=O)C1` [Example 17, N,N′-(2,2′-dimethyl-[1,1′-biphenyl]-3,3′-diyl)bis(4-methyl-5-((3-oxopiperazin-1-yl)methyl)picolinamide)], the IC50 [1] was 1.5 nM and the EC50 [2] was > 10000 nM.

`Cc1cc(C(=O)Nc2cccc(-c3cccc(NC(=O)c4cc(C)c(CN[C@@H]5CCOC[C@H]5O)cn4)c3C)c2C)ncc1CN[C@@H]1CCOC[C@H]1O` [Example 18, N,N′-(2,2′-dimethyl-[1,1′-biphenyl]-3,3′-diyl)bis(5-((((3S,4R)-3-hydroxytetrahydro-2H-pyran-4-yl)amino)methyl)-4-methylpicolinamide)] was tested, and the IC50 [1] was 0.34 nM and the EC50 [2] was 209 nM.

Compound `Cc1cc(C(=O)Nc2cccc(-c3cccc(NC(=O)c4cc(C)c(CN[C@H]5CC[C@H](O)CC5)cn4)c3C)c2C)ncc1CN[C@H]1CC[C@H](O)CC1` [Example 19, N,N′-(2,2′-dimethyl-[1,1′-biphenyl]-3,3′-diyl)bis(5-((((1r,4r)-4-hydroxycyclohexyl)amino)methyl)-4-methylpicolinamide)] has an IC50 [1] of 0.15 nM and an EC50 [2] of 86 nM.

`COC(=O)[C@@H](CO)NCc1cnc(C(=O)Nc2cccc(-c3cccc(NC(=O)c4cc(C)c(CN[C@H](CO)C(=O)OC)cn4)c3C)c2C)cc1C` [Example 20, dimethyl 2,2′-((((((2,2′-dimethyl-[1,1′-biphenyl]-3,3′-diyl)bis (azanediyl))bis(carbonyl))bis(4-methylpyridine-6,3-diyl))bis(methylene))bis(azanediyl))(2R,2′R)-bis(3-hydroxypropanoate)] showed an IC50 [1] of 0.36 nM and an EC50 [2] of 4220 nM.

`Cc1cc(C(=O)Nc2cccc(-c3cccc(NC(=O)c4cc(C)c(CN[C@H](CO)C(=O)O)cn4)c3C)c2C)ncc1CN[C@H](CO)C(=O)O` [Example 21, (2R,2′R)-2,2′-((((((2,2′-dimethyl-[1,1′-biphenyl]-3,3′-diyl)bis(azanediyl))bis(carbonyl))bis(4-methylpyridine-6,3-diyl))bis(methylene))bis(azanediyl)) bis(3-hydroxypropaitoic acid)] showed an IC50 [1] of 0.66 nM and an EC50 [2] of 83 nM.

Compound `COC(=O)[C@H](CO)NCc1cnc(C(=O)Nc2cccc(-c3cccc(NC(=O)c4cc(C)c(CN[C@@H](CO)C(=O)OC)cn4)c3C)c2C)cc1C` [Example 22, dimethyl 2,2′-((((((2,2′-dimethyl-[1,1′-biphenyl]-3,3′-diyl)bis(azanediyl))bis(carbonyl))bis(4-methylpyridine-6,3-diyl))bis(methylene))bis(azanediyl)) (2S,2′S)-bis(3-hydroxypropanoate)] has an IC50 [1] of 0.28 nM and an EC50 [2] of 5170 nM.

`Cc1cc(C(=O)Nc2cccc(-c3cccc(NC(=O)c4cc(C)c(CN[C@@H](CO)C(=O)O)cn4)c3C)c2C)ncc1CN[C@@H](CO)C(=O)O` [Example 23, (2S,2′S)-2,2′-((((((2,2′-dimethyl-[1,1′-biphenyl]3,3′-diyl)bis(azanediyl))bis(carbonyl))bis(4-methylpyridine-6,3-diyl))bis(methylene))bis(azanediyl))bis (3-hydroxypropanoic acid)] showed an IC50 [1] of 0.31 nM and an EC50 [2] of 249 nM.

Compound `COc1cc(C(=O)Nc2cccc(-c3cccc(NC(=O)c4cc(OC)c(CN5CC6(CCO6)C5)cn4)c3C)c2C)ncc1CN1CC2(CCO2)C1` [Example 57] has an IC50 [1] of 0.36 nM.

— patent publication US11459339B2, “Biaryl derivative, preparation method thereof and pharmaceutical application thereof” (Abbisko Therapeutics Co., Ltd., priority 2018, dated 2022)
